Consider one compound from patent publication US5078135A, “Apparatus for in vivo analysis of biological compounds in blood or tissue by microdialysis and mass spectrometry” (Board of Regents, The University of Texas System, priority 1989, dated 1992).

The nature of data set [1]: in vivo pharmacokinetic analysis of free drug by microdialysis / CF-FAB mass spectrometry (jugular vein probe, rat). Particulars: 330 gram rat, 15 milligrams sodium penicillin G in 0.3 milliliters saline, injected. More on the design: species or system Sprague Dawley male rat. The text has this:
Referring to FIG. 1, the present invention applied to detect drug and metabolite levels in a rat is disclosed. It should be emphasized that the present apparatus and method can be applied to other animals, including humans. Microdialysis probe 11 is inserted inside a 22-gauge needle cannula (not shown) surgically placed in the jugular vein of a 330 gram Sprague Dawley male rat 12. A microliter syringe pump 13 is connected to microdialysis probe 11 by tube 14 and is used to controllably provide perfusate to microdialysis probe 11 through tube 14. Syringe pump 13 can be a Model 2274 pump available from the Harvard Apparatus Co., of Milford, Mass. In the preferred embodiment, the perfusate is 95% water and 5% glycerol provided at a rate of 4.8+/-0.2 microliters per minute.
The dialysate output from microdialysis probe 11 is connected through tube 16 to injection switch valve 17 which can be, for example, a Rheodyne Model 7410 injection switch valve. During collection, injection switch valve 17 is positioned so that dialysate passing through tube 16 passes through 20 microliter collection loop 18. […]
A 330 gram rat was injected with a dose of 15 milligrams of sodium penicillin G dissolved in 0.3 milliliters of physiological saline solution. Negative ions were recorded in the mass spectrometric analysis of the dialysate in order to obtain maximum sensitivity. […]

The conditions of data set [2]: intramuscular administration; broken curve 43 in FIG. 4; cited from earlier work.

Each structure is given as a SMILES string.

With `CC1(C)S[C@@H]2[C@H](NC(=O)Cc3ccccc3)C(=O)N2[C@H]1C(=O)O` [sodium penicillin G], in data set [1], the “peak concentration of free drug (non-protein bound)” value is recorded as “approximately 24 micrograms per milliliter” and the “time of peak concentration of free drug” value was “about 30 minutes”. Moreover, the “time to peak, published data” value in data set [2] is 26 to 30 min.
